Source: PubChem BioAssay (NCI)
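Exposure lasted 48 hours, with cells grown in 96-well plates and compounds tested at five concentrations. GI50 marks 50% less growth. TGI marks complete inhibition of growth.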

Key:
Assay in all cases: NCI anticancer screen, dose series, 48 h
SNB-19 CNS = system: SNB-19 CNS
A498 renal = system: A498 renal
HS 578T breast = system: HS 578T breast
OVCAR-4 ovarian = system: OVCAR-4 ovarian
T-47D breast = system: T-47D breast
SK-OV-3 ovarian = system: SK-OV-3 ovarian
HCT-15 colon = system: HCT-15 colon
HCC-2998 colon = system: HCC-2998 colon
HOP-92 NSCLC = system: HOP-92 NSCLC
MDA-MB-231 breast = system: MDA-MB-231 breast
OVCAR-8 ovarian = system: OVCAR-8 ovarian
BT-549 breast = system: BT-549 breast
HOP-62 NSCLC = system: HOP-62 NSCLC
DU-145 prostate = system: DU-145 prostate
OVCAR-5 ovarian = system: OVCAR-5 ovarian
CAKI-1 renal = system: CAKI-1 renal
NCI-H226 lung = system: NCI-H226 lung
NCI/ADR-RES ovarian = system: NCI/ADR-RES ovarian
U251 CNS = system: U251 CNS
HCT-116 colon = system: HCT-116 colon
786-0 renal = system: 786-0 renal
K-562 leukemia = system: K-562 leukemia
MDA-MB-435 = system: MDA-MB-435
SNB-75 CNS = system: SNB-75 CNS
TK-10 renal = system: TK-10 renal
SK-MEL-28 melanoma = system: SK-MEL-28 melanoma
UACC-257 melanoma = system: UACC-257 melanoma
SK-MEL-2 melanoma = system: SK-MEL-2 melanoma
NCI-H23 lung = system: NCI-H23 lung
IGROV1 ovarian = system: IGROV1 ovarian
OVCAR-3 ovarian = system: OVCAR-3 ovarian
SN12C renal = system: SN12C renal
SW-620 colon = system: SW-620 colon
MCF7 breast = system: MCF7 breast
SK-MEL-5 melanoma = system: SK-MEL-5 melanoma
UO-31 renal = system: UO-31 renal
NCI-H460 lung = system: NCI-H460 lung
PC-3 prostate = system: PC-3 prostate
UACC-62 melanoma = system: UACC-62 melanoma
HT29 colon = system: HT29 colon
MALME-3M melanoma = system: MALME-3M melanoma
M14 melanoma = system: M14 melanoma
RXF 393 renal = system: RXF 393 renal
KM12 colon = system: KM12 colon
SF-539 CNS = system: SF-539 CNS
CCRF-CEM leukemia = system: CCRF-CEM leukemia
NCI-H522 lung = system: NCI-H522 lung
MOLT-4 leukemia = system: MOLT-4 leukemia
A549 NSCLC = system: A549 NSCLC
HL-60(TB) leukemia = system: HL-60(TB) leukemia
EKVX NSCLC = system: EKVX NSCLC
LOX IMVI melanoma = system: LOX IMVI melanoma
ACHN renal = system: ACHN renal

## O=C(Nc1cccc(Cl)c1)Nc1cc2ncncc2cc1OCc1cccc(F)c1
SNB-19 CNS
  GI50: 2.91 µM
  TGI: 74.2 µM
A498 renal
  GI50: 1.75 µM
  TGI: 5.96 µM
HS 578T breast
  GI50: 2.62 µM
  TGI: 7.02 µM
OVCAR-4 ovarian
  GI50: 2.56 µM
  TGI: 7.35 µM
T-47D breast
  GI50: 1.75 µM
  TGI: 4.37 µM
SK-OV-3 ovarian
  GI50: 2.45 µM
  TGI: 6.13 µM
HCT-15 colon
  GI50: 2.72 µM
  TGI: > 100 µM
HCC-2998 colon
  GI50: 3.9 µM
  TGI: > 100 µM
HOP-92 NSCLC
  GI50: 1.88 µM
  TGI: 6.88 µM
MDA-MB-231 breast
  GI50: 2.54 µM
  TGI: 7.8 µM
OVCAR-8 ovarian
  GI50: 2.76 µM
  TGI: 7.98 µM
BT-549 breast
  GI50: 2.34 µM
  TGI: 7.41 µM
HOP-62 NSCLC
  GI50: 2.1 µM
  TGI: 5.6 µM
DU-145 prostate
  GI50: 3.38 µM
  TGI: > 100 µM
OVCAR-5 ovarian
  GI50: 2.72 µM
  TGI: > 100 µM
CAKI-1 renal
  GI50: 3.03 µM
  TGI: > 100 µM
NCI-H226 lung
  GI50: 2.91 µM
  TGI: 9.19 µM
NCI/ADR-RES ovarian
  GI50: 2.97 µM
  TGI: 7.71 µM
U251 CNS
  GI50: 3.28 µM
  TGI: > 100 µM
HCT-116 colon
  GI50: 2.61 µM
  TGI: > 100 µM
786-0 renal
  GI50: 3 µM
  TGI: > 100 µM
K-562 leukemia
  GI50: 2.52 µM
  TGI: > 100 µM
MDA-MB-435
  GI50: 1.48 µM
  TGI: 4.34 µM
SNB-75 CNS
  GI50: 1.81 µM
  TGI: 3.98 µM
TK-10 renal
  GI50: 2.63 µM
  TGI: 7.98 µM

## COc1cc(-c2nn(-c3ccc(NC(=O)NCCCNC(=O)c4ccccc4)cc3)cc2-c2ccncc2)ccc1Cl
SK-MEL-28 melanoma
  GI50: 1.34 µM
  TGI: > 100 µM
UACC-257 melanoma
  GI50: 2.37 µM
  TGI: 23.7 µM
SNB-19 CNS
  GI50: 0.846 µM
  TGI: > 100 µM
A498 renal
  GI50: 0.467 µM
  TGI: 5.15 µM
HS 578T breast
  GI50: 0.428 µM
  TGI: > 100 µM
OVCAR-4 ovarian
  GI50: 1 µM
  TGI: > 100 µM
T-47D breast
  GI50: 0.611 µM
  TGI: 14 µM
SK-OV-3 ovarian
  GI50: 0.752 µM
  TGI: > 100 µM
HCT-15 colon
  GI50: 1.94 µM
  TGI: > 100 µM
HCC-2998 colon
  GI50: 1.21 µM
  TGI: 8.81 µM
SK-MEL-2 melanoma
  GI50: 0.637 µM
  TGI: 5.22 µM
HOP-92 NSCLC
  GI50: 1.26 µM
  TGI: 8.1 µM
NCI-H23 lung
  GI50: 0.665 µM
  TGI: > 100 µM
IGROV1 ovarian
  GI50: 0.843 µM
  TGI: > 100 µM
OVCAR-3 ovarian
  GI50: 0.252 µM
  TGI: 0.647 µM
SN12C renal
  GI50: 0.718 µM
  TGI: > 100 µM
SW-620 colon
  GI50: 0.455 µM
  TGI: > 100 µM
MCF7 breast
  GI50: 0.338 µM
  TGI: > 100 µM
SK-MEL-5 melanoma
  GI50: 0.362 µM
  TGI: 1.43 µM
UO-31 renal
  GI50: 1.56 µM
  TGI: 11.3 µM
MDA-MB-231 breast
  GI50: 1.14 µM
  TGI: > 100 µM
OVCAR-8 ovarian
  GI50: 0.635 µM
  TGI: 12.7 µM
BT-549 breast
  GI50: 0.887 µM
  TGI: 5.33 µM
NCI-H460 lung
  GI50: 0.404 µM
  TGI: 9.59 µM
PC-3 prostate
  GI50: 0.436 µM
  TGI: > 100 µM
HOP-62 NSCLC
  GI50: 0.46 µM
  TGI: > 100 µM
DU-145 prostate
  GI50: 0.385 µM
  TGI: > 100 µM
OVCAR-5 ovarian
  GI50: 1.1 µM
  TGI: > 100 µM
UACC-62 melanoma
  GI50: 0.543 µM
  TGI: 3.48 µM
NCI-H226 lung
  GI50: 1.47 µM
  TGI: > 100 µM
HT29 colon
  GI50: 0.378 µM
  TGI: 2.16 µM
MALME-3M melanoma
  GI50: 0.457 µM
  TGI: 2.88 µM
NCI/ADR-RES ovarian
  GI50: 3.78 µM
  TGI: > 100 µM
M14 melanoma
  GI50: 0.311 µM
  TGI: 1.84 µM
RXF 393 renal
  GI50: 0.293 µM
  TGI: 0.917 µM
KM12 colon
  GI50: 0.39 µM
  TGI: 2 µM
SF-539 CNS
  GI50: 0.266 µM
  TGI: 0.843 µM
CCRF-CEM leukemia
  GI50: 0.385 µM
  TGI: > 100 µM
U251 CNS
  GI50: 0.561 µM
  TGI: 21.9 µM
NCI-H522 lung
  GI50: 0.231 µM
  TGI: 3.1 µM
MOLT-4 leukemia
  GI50: 0.905 µM
  TGI: > 100 µM
HCT-116 colon
  GI50: 0.361 µM
  TGI: 5.51 µM
A549 NSCLC
  GI50: 3.23 µM
  TGI: 77.6 µM
HL-60(TB) leukemia
  GI50: 0.358 µM
  TGI: 1.2 µM
786-0 renal
  GI50: 0.493 µM
  TGI: 2.86 µM
EKVX NSCLC
  GI50: 1.29 µM
  TGI: > 100 µM
LOX IMVI melanoma
  GI50: 0.597 µM
  TGI: 8.07 µM
ACHN renal
  GI50: 1.64 µM
  TGI: 5.3 µM
SNB-75 CNS
  GI50: 1.12 µM
  TGI: > 100 µM
TK-10 renal
  GI50: 2.3 µM
  TGI: 8.01 µM
